The experiment concerns the target T1, SIRT1 (Homo sapiens, UniProt Q96EB6).
T1 sequence (Q96EB6 1-747): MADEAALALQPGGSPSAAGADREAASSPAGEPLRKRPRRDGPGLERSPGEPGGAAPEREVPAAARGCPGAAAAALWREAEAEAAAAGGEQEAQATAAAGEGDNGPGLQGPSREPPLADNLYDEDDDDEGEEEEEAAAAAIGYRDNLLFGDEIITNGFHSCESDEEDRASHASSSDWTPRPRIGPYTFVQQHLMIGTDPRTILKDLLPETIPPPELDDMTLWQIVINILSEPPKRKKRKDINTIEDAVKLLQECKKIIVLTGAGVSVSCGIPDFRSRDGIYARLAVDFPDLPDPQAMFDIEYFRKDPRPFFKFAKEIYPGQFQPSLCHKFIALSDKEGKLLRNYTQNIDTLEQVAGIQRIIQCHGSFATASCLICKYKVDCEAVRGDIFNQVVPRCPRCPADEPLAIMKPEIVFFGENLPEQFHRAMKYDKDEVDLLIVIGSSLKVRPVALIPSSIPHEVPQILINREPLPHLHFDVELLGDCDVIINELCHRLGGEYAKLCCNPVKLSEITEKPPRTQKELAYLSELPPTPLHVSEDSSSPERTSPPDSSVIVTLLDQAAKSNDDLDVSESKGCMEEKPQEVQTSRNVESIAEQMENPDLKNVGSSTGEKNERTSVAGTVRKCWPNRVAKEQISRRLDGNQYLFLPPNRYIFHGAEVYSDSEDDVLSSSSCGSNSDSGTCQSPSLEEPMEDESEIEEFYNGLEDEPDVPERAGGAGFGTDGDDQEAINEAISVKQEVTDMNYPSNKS
Put plainly: SIRT1 mass spectrometry (MS) based deacetylation assay. On FOLD ACT. MS: test concentration or dose not given here. Type of experiment: biochemical. The note with it: Sirt1 activators; for FOLD ACT. MS: fold activation as determined by MS; for EC50: mass spectrometry assay, read-out: ED50 MS ASSAY.

Molecules are shown by their SMILES.

Take `CN(C)c1ccc(C(=O)Nc2ccccc2-c2nc3ccncc3o2)cc1` [Compound 459]: the “FOLD ACT. MS” value is “B (B (Fold Activation <250%))” and the EC50 is below 5 µM.

In the case of `O=C(CCc1ccccc1)Nc1ccccc1-c1nc2ccncc2s1` [Compound 460], the EC50 fell in the range of 5 to 50 µM.

As for `Cc1cc(C(=O)Nc2ccccc2-c2nc3ccncc3s2)n(C(C)(C)C)n1` [Compound 462], the EC50 is below 5 µM.

`CC(Oc1ccccc1)C(=O)Nc1ccccc1-c1nc2ccncc2s1` (stereo not shown) [Compound 463]: the EC50 was 5 to 50 µM.

In the case of `Cc1cc(C)cc(C(=O)Nc2cc(-c3nc4ncccc4o3)ccn2)c1` [Compound 468], the “FOLD ACT. MS” value is listed as “B (B (Fold Activation <250%))” and the EC50 was in the range of 5 to 50 µM.

For `COC(=O)c1cccc(NC(=S)Nc2cccc(-c3nc4ccncc4s3)c2)c1` [Compound 473], the EC50 was below 5 µM.

On to `S=C(Nc1ccc(-n2cccn2)cc1)Nc1cccc(-c2nc3ccncc3s2)c1` [Compound 481], for which the EC50 lay within 5 to 50 µM.

As to `Cc1cc(C)cc(C(=O)Nc2ccccc2-c2nc3ncccc3o2)c1` [Compound 482], the “FOLD ACT. MS” value is on record as “B (B (Fold Activation <250%))” and the EC50 was below 5 µM.

`S=C(Nc1ccc(N2CCOCC2)nc1)Nc1cccc(-c2nc3ccncc3s2)c1` [Compound 484]: the “FOLD ACT. MS” value is listed as “B (B (Fold Activation <250%))” and the EC50 was 5 to 50 µM.

With `S=C(Nc1cccnc1)Nc1cccc(-c2nc3ccncc3s2)c1` [Compound 485], the EC50 lay within 5 to 50 µM.

In the case of `COc1ccc(CNC(=S)Nc2cccc(-c3nc4ccncc4s3)c2)cc1` [Compound 498], the EC50 was in the range of 5 to 50 µM.

Regarding `COc1cc(C(=O)Nc2ccccc2-c2nc3ccccc3[nH]2)ccc1CN1CCOCC1` [Compound 503], the “FOLD ACT. MS” value is on record as “A (A (Fold activation >250%))” and the EC50 was below 5 µM.

With `CN(C)c1cccc(C(=O)Nc2ccccc2-c2cn3cccnc3n2)c1` [Compound 504], the “FOLD ACT. MS” value is recorded as “B (B (Fold Activation <250%))” and the EC50 was in the range of 5 to 50 µM.

`COc1cc(C(=O)Nc2cccc(-c3nc4ncccc4o3)c2)ccc1CN1CCCC1` [Compound 506]: the “FOLD ACT. MS” value is on record as “A (A (Fold activation >250%))” and the EC50 was 5 to 50 µM.

Consider `COc1ccc(C(=O)Nc2ccc(C)cc2-c2nc3ccccc3[nH]2)cc1OC` [Compound 507], for which the “FOLD ACT. MS” value was “A (A (Fold activation >250%))” and the EC50 is below 5 µM.

Turning to `O=C(Nc1ccccc1-c1nc2ccccc2[nH]1)c1cnc2ccccc2n1` [Compound 508], the “FOLD ACT. MS” value was “A (A (Fold activation >250%))” and the EC50 is below 5 µM.

As for `O=C(Nc1ccccc1-c1cn2c(CN3CCNCC3)csc2n1)c1c[nH]c2ccccc12` [Compound 510], the “FOLD ACT. MS” value was “A (A (Fold activation >250%))” and the EC50 was below 5 µM.

As for `O=C(Nc1ccccc1-c1cn2c(CN3CCNCC3)csc2n1)c1c[nH]nc1-c1ccccc1` [Compound 512], the “FOLD ACT. MS” value is given as “A (A (Fold activation >250%))” and the EC50 is below 5 µM.

As to `O=C(Nc1ccccc1-c1cn2cc(CN3CCNCC3)sc2n1)c1cnc2ccccc2n1` [Compound 513], the “FOLD ACT. MS” value is recorded as “A (A (Fold activation >250%))” and the EC50 was below 5 µM.

Regarding `O=C(Nc1cccc(-c2nc3nc(CN4CCNCC4)ccc3o2)c1)c1cnc2ccccc2n1` [Compound 514], the “FOLD ACT. MS” value is “B (B (Fold Activation <250%))” and the EC50 was in the range of 5 to 50 µM.

Take `COc1ccc(C(=O)Nc2ccc(-c3nc4cnccc4s3)s2)c(OC)c1` [Compound 515]: the “FOLD ACT. MS” value is recorded as “B (B (Fold Activation <250%))” and the EC50 is below 5 µM.

For `CN(C)c1cccc(C(=O)Nc2ccc(-c3nc4cnccc4s3)s2)c1` [Compound 518], the “FOLD ACT. MS” value is “B (B (Fold Activation <250%))” and the EC50 is below 5 µM.

As for `CN(C)c1ccc(C(=O)Nc2ccc(-c3nc4cnccc4s3)s2)cc1` [Compound 519], the “FOLD ACT. MS” value is given as “B (B (Fold Activation <250%))” and the EC50 was below 5 µM.

Take `COc1cc(C(=O)Nc2ccc(-c3nc4cnccc4s3)s2)cc(OC)c1OC` [Compound 520]: the “FOLD ACT. MS” value is given as “B (B (Fold Activation <250%))” and the EC50 is below 5 µM.

Turning to `COc1cc(OC)cc(C(=O)Nc2ccccc2-c2nc3cccnc3[nH]2)c1` [Compound 521], the “FOLD ACT. MS” value is “B (B (Fold Activation <250%))” and the EC50 is below 5 µM.

In the case of `COc1cc(C(=O)Nc2ccccc2-c2nc3cccnc3[nH]2)cc(OC)c1OC` [Compound 522], the “FOLD ACT. MS” value is “A (A (Fold activation >250%))” and the EC50 lay in the range of 5 to 50 µM.

For `COc1cc(C)ccc1C(=O)Nc1ccccc1-c1nc2cccnc2[nH]1` [Compound 523], the “FOLD ACT. MS” value was “B (B (Fold Activation <250%))” and the EC50 lay within 5 to 50 µM.

Regarding `CN(C)c1cccc(C(=O)Nc2ccccc2-c2nc3cccnc3[nH]2)c1` [Compound 524], the “FOLD ACT. MS” value was “B (B (Fold Activation <250%))” and the EC50 was below 5 µM.

For the compound `COc1ccc(C(=O)Nc2ccccc2-c2nc3cccnc3[nH]2)cc1OC` [Compound 525], the “FOLD ACT. MS” value is on record as “B (B (Fold Activation <250%))” and the EC50 is below 5 µM.

As to `O=C(Nc1ccccc1-c1nc2cccnc2[nH]1)c1ccc(N2CCOCC2)cc1` [Compound 526], the “FOLD ACT. MS” value is reported as “A (A (Fold activation >250%))” and the EC50 is below 5 µM.

Consider `O=C(Nc1ccccc1-c1nc2cccnc2[nH]1)c1ccc(N2CCCCC2)cc1` [Compound 527], for which the “FOLD ACT. MS” value is given as “B (B (Fold Activation <250%))” and the EC50 was below 5 µM.

For the compound `COc1ccc(C(=O)Nc2ccccc2-c2nc3cccnc3[nH]2)cc1C(F)(F)F` [Compound 528], the “FOLD ACT. MS” value is recorded as “B (B (Fold Activation <250%))” and the EC50 is below 5 µM.

Take `O=C(Nc1ccccc1-c1nc2cccnc2[nH]1)c1cccc(OC(F)(F)F)c1` [Compound 529]: the “FOLD ACT. MS” value is recorded as “B (B (Fold Activation <250%))” and the EC50 is below 5 µM.

Regarding `COc1cccc(C(=O)Nc2ccccc2-c2nc3cccnc3[nH]2)c1C` [Compound 530], the “FOLD ACT. MS” value is given as “B (B (Fold Activation <250%))” and the EC50 is below 5 µM.

Consider `COc1ccc(C(=O)Nc2ccccc2-c2nc3cccnc3[nH]2)cc1` [Compound 531], for which the “FOLD ACT. MS” value is “B (B (Fold Activation <250%))” and the EC50 is below 5 µM.

`COc1cccc(C(=O)Nc2ccccc2-c2nc3cccnc3[nH]2)c1` [Compound 532]: the “FOLD ACT. MS” value is “B (B (Fold Activation <250%))” and the EC50 was below 5 µM.

`O=C(Nc1ccccc1-c1nc2cccnc2[nH]1)c1ccccc1` [Compound 533]: the “FOLD ACT. MS” value is “B (B (Fold Activation <250%))” and the EC50 is below 5 µM.

For `CN(C)c1ccc(C(=O)Nc2ccccc2-c2nc3cccnc3[nH]2)cc1` [Compound 534], the “FOLD ACT. MS” value is on record as “B (B (Fold Activation <250%))” and the EC50 is below 5 µM.

With `COc1cc(C(=O)Nc2ccccc2-c2nc3cccnc3[nH]2)ccc1CN1CCCC1` [Compound 535], the “FOLD ACT. MS” value is given as “A (A (Fold activation >250%))” and the EC50 was 5 to 50 µM.

Take `COc1cc(C(=O)Nc2ccccc2-c2nc3cccnc3[nH]2)ccc1CN1CCCCC1` [Compound 536]: the “FOLD ACT. MS” value is reported as “A (A (Fold activation >250%))” and the EC50 was in the range of 5 to 50 µM.

The record behind these values is patent US8044198B2, “Sirtuin modulating compounds” (Sirtris Pharmaceuticals, Inc., priority 2005, dated 2011).
